# Laboratory results: patent US8178522B2, “Thiazoles” (Hoffmann-La Roche Inc., priority 2009, dated 2012)
# Biological target: T1, GABA A α5 (α5β3γ2) (Homo sapiens, UniProt P18507+P31644)
# T1 construct: expressed in transfected cells; host or cells: HEK293, transiently transfected; membrane preparation
# Test: [3H]flumazenil competition binding, human GABA A α5 receptor
# Conditions: not given
# Experimental: Membrane Preparation and Binding Assay
# The affinity of compounds at GABA A receptor subtypes was measured by competition for [3H]flumazenil (85 Ci/mmol; Roche) binding to HEK293 cells expressing rat (stably transfected) or human (transiently transfected) receptors of compositional α1β3γ2, α2β3γ2, α3β3γ2 and α5β3γ2.
# Cell pellets were suspended in Krebs-tris buffer (4.8 mM KCl, 1.2 mM CaCl2, 1.2 mM MgCl2, 120 mM NaCl, 15 mM Tris; pH 7.5; binding assay buffer), homogenized by polytron for ca. 20 sec on ice and centrifuged for 60 min at 4° C. (50000 g; Sorvall, rotor: SM24=20000 rpm). The cell pellets were re-suspended in Krebs-tris buffer and homogenized by polytron for ca. 15 sec on ice. Protein was measured (Bradford method, Bio-Rad) and aliquots of 1 mL were prepared and stored at −80° C.
# Assays were incubated to equilibrium for 1 hour at 4° C. and harvested onto GF/C uni-filters (Packard) by filtration using a Packard harvester and washing with ice-cold wash buffer (50 mM Tris; pH 7.5). After drying, filter-retained radioactivity was detected by liquid scintillation counting. Ki values were calculated using Excel-Fit (Microsoft) and are the means of two determinations.
row,Structure (SMILES),Ki [nM]
1,"Cc1onc(-c2ccc(F)cn2)c1/C=C/c1ncc(C(=O)NC2CC2)s1 [Example 79, 2-{(E)-2-[3-(5-Fluoro-pyridin-2-yl)-5-methyl-isoxazol-4-yl]-vinyl}-thiazole-5-carboxylic acid cyclopropylamide]",4.1

# Same assay, conditions: human receptor α5β3γ2 transiently transfected in HEK293 cells; competition for [3H]flumazenil 0.5 nM; 1 hour at 4° C.; means of two determinations; read-out: hKi GABA A α5
row,Structure (SMILES),Ki [nM]
1,"Cc1onc(-c2ccccc2)c1CNc1ncc(C(=O)NC2CCOCC2)s1 [Example 136, 2-[(5-Methyl-3-phenyl-isoxazol-4-ylmethyl)-amino]-thiazole-5-carboxylic acid (tetra-hydro-pyran-4-yl)-amide]",27.5
2,"Cc1nc(CCc2c(-c3ccccn3)noc2C)sc1C(=O)NCC(F)(F)F [Example 13, 4-Methyl-2-[2-(5-methyl-3-pyridin-2-yl-isoxazol-4-yl)-ethyl]-thiazole-5-carboxylic acid (2,2,2-trifluoro-ethyl)-amide]",4.2
3,"Cc1onc(-c2ccccc2)c1/C=C/c1ncc(C(=O)NC(C)CO)s1 (stereo not drawn) [Example 66, 2-[(E)-2-(5-Methyl-3-phenyl-isoxazol-4-yl)-vinyl]-thiazole-5-carboxylic acid (2-hydroxy-1-methyl-ethyl)-amide]",1.8
4,"Cc1onc(-c2ccc(F)cn2)c1/C=C/c1ncc(C(=O)N2CCS(=O)(=O)CC2)s1 [Example 83, (1,1-Dioxothiomorpholin-4-yl)-(2-{(E)-2-[3-(5-fluoro-pyridin-2-yl)-5-methyl-isoxazol-4-yl]-vinyl}-thiazol-5-yl)-methanone]",27.4
5,"Cc1nc(/C=C/c2c(-c3ccc(F)cn3)noc2C)sc1C(=O)NC(C)C [Example 71, 2-{(E)-2-[3-(5-Fluoro-pyridin-2-yl)-5-methyl-isoxazol-4-yl]-vinyl}-4-methyl-thiazole-5-carboxylic acid isopropylamide]",1.5
6,"Cc1onc(-c2ccc(F)cn2)c1/C=C/c1ncc(C(=O)N2CCOCC2)s1 [Example 86, (2-{(E)-2-[3-(5-Fluoro-pyridin-2-yl)-5-methyl-isoxazol-4-yl]-vinyl}-thiazol-5-yl)-morpholin-4-yl-methanone]",31.2
7,"Cc1onc(-c2ccc(F)cn2)c1/C=C/c1ncc(C(=O)NCC2CC2)s1 [Example 82, 2-{(E)-2-[3-(5-Fluoro-pyridin-2-yl)-5-methyl-isoxazol-4-yl]-vinyl}-thiazole-5-carboxylic acid cyclopropylmethyl-amide]",4.7
8,"CCCCc1noc(C)c1/C=C/c1nc(C)c(C(=O)Nc2cnn(C)c2)s1 [Example 112, 2-[(E)-2-(3-Butyl-5-methyl-isoxazol-4-yl)-vinyl]-4-methyl-thiazole-5-carboxylic acid (1-methyl-1-pyrazol-4-yl)-amide]",1.3
9,"Cc1onc(-c2ccc(F)cn2)c1CCc1ncc(C(=O)NCC(F)(F)F)s1 [Example 44, 2-{2-[3-(5-Fluoro-pyridin-2-yl)-5-methyl-isoxazol-4-yl]-ethyl}-thiazole-5-carboxylic acid (2,2,2-trifluoro-ethyl)-amide]",15.7
10,"CCCCc1noc(C)c1CCc1nc(C)c(C(=O)NC(C)CO)s1 (stereo not drawn) [Example 50, 2-[2-(3-Butyl-5-methyl-isoxazol-4-yl)-ethyl]-4-methyl-thiazole-5-carboxylic acid (2-hydroxy-1-methyl-ethyl)-amide]",16.8
11,"Cc1onc(-c2ccccn2)c1CCc1ncc(C(=O)NC2CCS(=O)(=O)C2)s1 (stereo not drawn) [Example 27, 2-[2-(5-Methyl-3-pyridin-2-yl-isoxazol-4-yl)-ethyl]-thiazole-5-carboxylic acid (1,1-dioxo-tetrahydrothiophen-3-yl)-amide]",14
12,"CCCCc1noc(C)c1/C=C/c1nc(C)c(C(=O)NC(CO)CO)s1 [Example 98, 2-[(E)-2-(3-Butyl-5-methyl-isoxazol-4-yl)-vinyl]-4-methyl-thiazole-5-carboxylic acid (2-hydroxy-1-hydroxymethyl-ethyl)-amide]",1.9
13,"CCCCc1noc(C)c1COc1ncc(C(=O)NC(C)C)s1 [Example 132, 2-(3-Butyl-5-methyl-isoxazol-4-ylmethoxy)-thiazole-5-carboxylic acid isopropylamide]",10.2
14,"Cc1nc(CCc2c(-c3ccccc3)noc2C)sc1C(=O)NCC(C)(C)O [Example 4, 4-Methyl-2-[2-(5-methyl-3-phenyl-isoxazol-4-yl)-ethyl]-thiazole-5-carboxylic acid (2-hydroxy-2-methyl-propyl)-amide]",37.8
15,"Cc1nc(CCc2c(-c3ccccn3)noc2C)sc1C(=O)NCC1CC1 [Example 12, 4-Methyl-2-[2-(5-methyl-3-pyridin-2-yl-isoxazol-4-yl)-ethyl]-thiazole-5-carboxylic acid cyclopropylmethyl-amide]",13.4
16,"Cc1onc(-c2ccc(F)cn2)c1/C=C/c1ncc(C(=O)NC(C)C)s1 [Example 78, 2-{(E)-2-[3-(5-Fluoro-pyridin-2-yl)-5-methyl-isoxazol-4-yl}-vinyl]-thiazole-5-carboxylic acid isopropylamide]",2.9

row,Structure (SMILES),Ki [nM]
1,"CCCCc1noc(C)c1CCc1nc(C)c(C(=O)N[C@@H](C)CO)s1 [Example 54, 2-[2-(3-Butyl-5-methyl-isoxazol-4-yl)-ethyl]-4-methyl-thiazole-5-carboxylic acid ((S)-2-hydroxy-1-methyl-ethyl)-amide]",15.9
2,"CCCCc1noc(C)c1CCc1nc(C)c(C(=O)NCC(C)(C)O)s1 [Example 49, 2-[2-(3-Butyl-5-methyl-isoxazol-4-yl)-ethyl]-4-methyl-thiazole-5-carboxylic acid (2-hydroxy-2-methyl-propyl)-amide]",43.3
3,"CCCCc1noc(C)c1/C=C/c1nc(C)c(C(=O)NCC2CC2)s1 [Example 116, 2-[(E)-2-(3-Butyl-5-methyl-isoxazol-4-yl)-vinyl]-4-methyl-thiazole-5-carboxylic acid cyclopropylmethyl-amide]",4.4
4,"CCCCc1noc(C)c1/C=C/c1nc(C)c(C(=O)NC)s1 [Example 122, 2-[(E)-2-(3-Butyl-5-methyl-isoxazol-4-yl)-vinyl]-4-methyl-thiazole-5-carboxylic acid methylamide]",5.7
5,"CCCCc1noc(C)c1/C=C\c1nc(C)c(C(=O)NCCO)s1 [Example 101, 2-[(Z)-2-(3-Butyl-5-methyl-isoxazol-4-yl)-vinyl]-4-methyl-thiazole-5-carboxylic acid (2-hydroxy-ethyl)-amide]",28.8
6,"Cc1onc(-c2ccc(F)cn2)c1/C=C/c1ncc(C(=O)NC(C)(C)CO)s1 [Example 80, 2-{(E)-2-[3-(5-Fluoro-pyridin-2-yl)-5-methyl-isoxazol-4-yl]-vinyl}-thiazole-5-carboxylic acid (2-hydroxy-1,1-dimethyl-ethyl)-amide]",17.4
7,"Cc1onc(-c2ccc(F)cn2)c1CCc1ncc(C(=O)NCC2CC2)s1 [Example 43, 2-{2-[3-(5-Fluoro-pyridin-2-yl)-5-methyl-isoxazol-4-yl]-ethyl}-thiazole-5-carboxylic acid cyclopropylmethyl-amide]",18.6
8,"Cc1nc(/C=C/c2c(-c3ccc(F)cn3)noc2C)sc1C(=O)NC1CCOCC1 [Example 72, 2-{(E)-2-[3-(5-Fluoro-pyridin-2-yl)-5-methyl-isoxazol-4-yl]-vinyl}-4-methyl-thiazole-5-carboxylic acid (tetrahydro-pyran-4-yl)-amide]",0.6
9,"Cc1onc(-c2ccccc2)c1COc1ncc(C(=O)NC(C)CO)s1 (stereo not drawn) [Example 129, 2-(5-Methyl-3-phenyl-isoxazol-4-ylmethoxy)-thiazole-5-carboxylic acid (2-hydroxy-1-methyl-ethyl)-amide]",4.2
10,"CCCCc1noc(C)c1/C=C/c1nc(C)c(C(=O)N2CC3(COC3)C2)s1 [Example 123, {2-[(E)-2-(3-Butyl-5-methyl-isoxazol-4-yl)-vinyl]-4-methyl-thiazol-5-yl}-(2-oxa-6-aza-spiro[3.3]hept-6-yl)-methanone]",1.1
11,"CCCCc1noc(C)c1COc1ncc(C(=O)NCCO)s1 [Example 134, 2-(3-Butyl-5-methyl-isoxazol-4-ylmethoxy)-thiazole-5-carboxylic acid (2-hydroxy-ethyl)-amide]",21.5
12,"COC(=O)c1sc(CCc2c(-c3ccc(F)cn3)noc2C)nc1C [Example 30, 2-{2-[3-(5-Fluoro-pyridin-2-yl)-5-methyl-isoxazol-4-yl]-ethyl}-4-methyl-thiazole-5-carboxylic acid methyl ester]",23.6
13,"CCCCc1noc(C)c1/C=C/c1nc(C)c(C(=O)N2CCOCC2)s1 [Example 120, {2-[(E)-2-(3-Butyl-5-methyl-isoxazol-4-yl)-vinyl]-4-methyl-thiazol-5-yl}-morpholin-4-yl-methanone]",57.8
14,"CCCCc1noc(C)c1CCc1nc(C)c(C(=O)NC2CCOCC2)s1 [Example 51, 2-[2-(3-Butyl-5-methyl-isoxazol-4-yl)-ethyl]-4-methyl-thiazole-5-carboxylic acid (tetra-hydro-pyran-4-yl)-amide]",11.1
15,"CCCCc1noc(C)c1CCc1ncc(C(=O)NC(C)C)s1 [Example 57, 2-[2-(3-Butyl-5-methyl-isoxazol-4-yl)-ethyl]-thiazole-5-carboxylic acid isopropylamide]",39.2
16,"Cc1nc(CCc2c(-c3ccccc3)noc2C)sc1C(N)=O [Example 6, 4-Methyl-2-[2-(5-methyl-3-phenyl-isoxazol-4-yl)-ethyl]thiazole-5-carboxylic acid amide]",33.7
